Measurements reported in patent US20260184693A1, “INHIBITORS OF SOLUTE CARRIER FAMILY 6A MEMBER 19 (SLC6A19) AND METHODS OF USE THEREOF” (Maze Therapeutics, Inc., priority 2022, published 2026).

Molecular target: T1, human SLC6A19 (Homo sapiens, UniProt Q695T7)
T1 construct: expressed in transfected cells
T1 sequence (Q695T7 1-634): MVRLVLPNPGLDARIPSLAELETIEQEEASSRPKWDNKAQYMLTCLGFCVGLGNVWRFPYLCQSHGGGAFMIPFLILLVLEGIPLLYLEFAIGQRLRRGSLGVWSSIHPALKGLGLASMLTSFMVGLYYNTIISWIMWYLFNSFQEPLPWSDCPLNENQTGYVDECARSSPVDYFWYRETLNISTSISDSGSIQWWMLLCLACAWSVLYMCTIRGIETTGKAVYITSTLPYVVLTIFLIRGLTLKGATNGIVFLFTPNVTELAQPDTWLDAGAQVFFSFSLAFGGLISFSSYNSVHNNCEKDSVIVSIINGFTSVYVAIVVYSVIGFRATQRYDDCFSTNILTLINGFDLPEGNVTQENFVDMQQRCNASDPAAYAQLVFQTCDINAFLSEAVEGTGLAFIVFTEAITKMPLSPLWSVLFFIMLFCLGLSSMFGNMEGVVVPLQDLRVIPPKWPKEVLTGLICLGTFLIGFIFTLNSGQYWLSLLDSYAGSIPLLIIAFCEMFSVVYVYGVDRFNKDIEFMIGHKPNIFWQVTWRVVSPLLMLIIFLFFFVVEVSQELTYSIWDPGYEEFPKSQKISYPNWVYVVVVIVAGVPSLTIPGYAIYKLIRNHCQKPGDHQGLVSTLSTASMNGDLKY
T1 sequence (Q9HBJ8 15-222 partner): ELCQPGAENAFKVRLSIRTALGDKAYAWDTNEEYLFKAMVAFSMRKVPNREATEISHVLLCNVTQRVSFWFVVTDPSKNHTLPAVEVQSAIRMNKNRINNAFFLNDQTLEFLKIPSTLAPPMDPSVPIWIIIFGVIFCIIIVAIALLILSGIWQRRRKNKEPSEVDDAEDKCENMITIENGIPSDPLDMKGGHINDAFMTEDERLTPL
Test: Example B2: 13C6,15N-isoleucine uptake, RapidFire mass spectrometry, in CHO cells with doxycycline-inducible expression of human SLC6A19 and TMEM27
Type: cell-based
Details: read-out: SLC6A19_RapidFire Uptake Assay IC50
Procedure, shortened: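 CHO cells were induced with doxycycline to express human SLC6A19 with TMEM27, then pre-incubated 20 min at 37 °C with compounds (2-fold, 10-point, duplicate). Uptake of 13C6,15N-isoleucine (2 mM solution added) over a further 20 min was measured by RapidFire mass spectrometry, using 13C-leucine as internal standard.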

| SMILES | IC50 [nM] |
| --- | --- |
| CN(C(=O)NCc1cc2ccccc2[nH]1)[C@@H]1CCCN(c2cccnn2)C1 [Compound 146, (R)-3-((1H-indol-2-yl)methyl)-1-methyl-1-(1-(pyridazin-3-yl)piperidin-3-yl)urea] | 553 |
| CC(=O)N1CCC[C@@H](N(C)C(=O)NCc2cc3ccccc3[nH]2)C1 [Compound 148, (R)-3-((1H-indol-2-yl)methyl)-1-(1-acetylpiperidin-3-yl)-1-methylurea] | 1080 |
| CN1CCC[C@@H](N(C)C(=O)NCc2cc3cc(Cl)ccc3[nH]2)C1 [Compound 149, (R)-3-((5-chloro-1H-indol-2-yl)methyl)-1-methyl-1-(1-methylpiperidin-3-yl)urea] | 10100 |
| CCc1cc2[nH]c(CNC(=O)N(C)[C@@H]3CCCN(C(C)=O)C3)cc2cc1Cl [Compound 152, (R)-1-(1-acetylpiperidin-3-yl)-3-((5-chloro-6-ethyl-1H-indol-2-yl)methyl)-1-methylurea] | 171 |
| COc1cc2[nH]c(CNC(=O)N(C)[C@@H]3CCCN(C(C)=O)C3)cc2cc1Cl [Compound 153, (R)-1-(1-acetylpiperidin-3-yl)-3-((5-chloro-6-methoxy-1H-indol-2-yl)methyl)-1-methylurea] | 504 |
| CC(=O)N1CCC[C@@H](N(C)C(=O)NCc2cc3cc(F)c(F)cc3[nH]2)C1 [Compound 156, (R)-1-(1-acetylpiperidin-3-yl)-3-((5,6-difluoro-1H-indol-2-yl)methyl)-1-methylurea] | 282 |
| COC(=O)N1CCC[C@@H](N(C)C(=O)NCc2cc3cc(Cl)ccc3[nH]2)C1 [Compound 158, methyl (R)-3-(3-((5-chloro-1H-indol-2-yl)methyl)-1-methylureido)piperidine-1-carboxylate] | 113 |
| CC(=O)N1CCC[C@@H](N(C)C(=O)NCc2cc3cc(F)ccc3[nH]2)C1 [Compound 161, (R)-1-(1-acetylpiperidin-3-yl)-3-((5-fluoro-1H-indol-2-yl)methyl)-1-methylurea] | 493 |
| COc1ccc2cc(CNC(=O)N(C)[C@@H]3CCCN(C(C)=O)C3)[nH]c2c1 [Compound 162, (R)-1-(1-acetylpiperidin-3-yl)-3-((6-methoxy-1H-indol-2-yl)methyl)-1-methylurea] | 6780 |
| CC(=O)N1CCC[C@@H](N(C)C(=O)NCc2cc3cc(F)c(Cl)cc3[nH]2)C1 [Compound 164, (R)-1-(1-acetylpiperidin-3-yl)-3-((6-chloro-5-fluoro-1H-indol-2-yl)methyl)-1-methylurea] | 351 |
| CCN(C(=O)NCc1cc2cc(Cl)c(OC)cc2[nH]1)[C@@H]1CCCN(C(C)=O)C1 [Compound 167, (R)-1-(1-acetylpiperidin-3-yl)-3-((5-chloro-6-methoxy-1H-indol-2-yl)methyl)-1-ethylurea] | 103 |
| CCN(C(=O)NCc1cc2cc(F)c(F)cc2[nH]1)[C@@H]1CCCN(C(C)=O)C1 [Compound 169, (R)-1-(1-acetylpiperidin-3-yl)-3-((5,6-difluoro-1H-indol-2-yl)methyl)-1-ethylurea] | 97.8 |
| CCN(C(=O)NCc1cc2cc(Cl)c(F)cc2[nH]1)[C@@H]1CCCN(C(C)=O)C1 [Compound 170, (R)-1-(1-acetylpiperidin-3-yl)-3-((5-chloro-6-fluoro-1H-indol-2-yl)methyl)-1-ethylurea] | 45.1 |
| CC(=O)N1CCC[C@@H](N(C)C(=O)NCc2cc3cc(C)c(C#N)cc3[nH]2)C1 [Compound 174, (R)-1-(1-acetylpiperidin-3-yl)-3-((6-cyano-5-methyl-1H-indol-2-yl)methyl)-1-methylurea] | 2790 |
| CC(=O)N1CCC[C@@H](N(C)C(=O)NCc2cc3cc(C)cc(CO)c3[nH]2)C1 [Compound 175, (R)-1-(1-acetylpiperidin-3-yl)-3-((7-(hydroxymethyl)-5-methyl-1H-indol-2-yl)methyl)-1-methylurea] | 20900 |

Second part, the compound after the results:

| IC50 [nM] | SMILES |
| --- | --- |
| 284 | Cc1cc(COc2cc3[nH]c(CNC(=O)N(C)[C@@H]4CCCN(c5cccnn5)C4)cc3cc2Cl)no1 [Compound 144, (R)-3-((5-chloro-6-((5-methylisoxazol-3-yl)methoxy)-1H-indol-2-yl)methyl)-1-methyl-1-(1-(pyridazin-3-yl)piperidin-3-yl)urea] |
| 909 | CN(C(=O)NCc1cc2ccccc2[nH]1)C1CCCN(c2cccnn2)C1 (stereo not drawn) [Compound 145, 3-((1H-indol-2-yl)methyl)-1-methyl-1-(1-(pyridazin-3-yl)piperidin-3-yl)urea] |
| 91.9 | CN(C(=O)NCc1cc2ccccc2[nH]1)[C@@H]1CCCN(c2ccon2)C1 [Compound 150, (R)-3-((1H-indol-2-yl)methyl)-1-(1-(isoxazol-3-yl)piperidin-3-yl)-1-methylurea] |
| 40.4 | CN(C(=O)NCc1cc2cc(Cl)ccc2[nH]1)[C@@H]1CCCN(c2ccon2)C1 [Compound 151, (R)-3-((5-chloro-1H-indol-2-yl)methyl)-1-(1-(isoxazol-3-yl)piperidin-3-yl)-1-methylurea] |
| 173 | CC(=O)N1CCC[C@@H](N(C)C(=O)NCc2cc3cc(Cl)c(Cl)cc3[nH]2)C1 [Compound 154, (R)-1-(1-acetylpiperidin-3-yl)-3-((5,6-dichloro-1H-indol-2-yl)methyl)-1-methylurea] |
| 537 | CCOc1cc2[nH]c(CNC(=O)N(C)[C@@H]3CCCN(C(C)=O)C3)cc2cc1Cl [Compound 155, (R)-1-(1-acetylpiperidin-3-yl)-3-((5-chloro-6-ethoxy-1H-indol-2-yl)methyl)-1-methylurea] |
| 194 | CC(=O)N1CCC[C@@H](N(C)C(=O)NCc2cc3cc(C)c(Cl)cc3[nH]2)C1 [Compound 157, (R)-1-(1-acetylpiperidin-3-yl)-3-((6-chloro-5-methyl-1H-indol-2-yl)methyl)-1-methylurea] |
| 179 | CC(=O)N1CCC[C@@H](N(C)C(=O)NCc2cc3cc(Cl)c(F)cc3[nH]2)C1 [Compound 159, (R)-1-(1-acetylpiperidin-3-yl)-3-((5-chloro-6-fluoro-1H-indol-2-yl)methyl)-1-methylurea] |
| 708 | CC(=O)N1CCC[C@@H](N(C)C(=O)NCc2cc3ccc(F)cc3[nH]2)C1 [Compound 160, (R)-1-(1-acetylpiperidin-3-yl)-3-((6-fluoro-1H-indol-2-yl)methyl)-1-methylurea] |
| 8030 | CC(=O)N1CCC[C@@H](N(C)C(=O)NCc2cc3[nH]ccc3cc2Cl)C1 [Compound 165, (R)-1-(1-acetylpiperidin-3-yl)-3-((5-chloro-1H-indol-6-yl)methyl)-1-methylurea] |
| 168 | CCN(C(=O)NCc1cc2cc(F)ccc2[nH]1)[C@@H]1CCCN(C(C)=O)C1 [Compound 166, (R)-1-(1-acetylpiperidin-3-yl)-1-ethyl-3-((5-fluoro-1H-indol-2-yl)methyl)urea] |
| 651 | CC(=O)N1CCC[C@@H](N(C)C(=O)NCc2cc3[nH]cc(C)c3cc2F)C1 [Compound 168, (R)-1-(1-acetylpiperidin-3-yl)-3-((5-fluoro-3-methyl-1H-indol-6-yl)methyl)-1-methylurea] |
| 10900 | CC(=O)N1CCC[C@@H](N(C)C(=O)NCc2cc3ccc(C#N)cc3[nH]2)C1 [Compound 172, (R)-1-(1-acetylpiperidin-3-yl)-3-((6-cyano-1H-indol-2-yl)methyl)-1-methylurea] |
| 314 | CN(C(=O)NCc1cc2cc(Cl)ccc2[nH]1)[C@@H]1CCCN(C(=O)N2CCC2)C1 [Compound 173, (R)-1-(1-(azetidine-1-carbonyl)piperidin-3-yl)-3-((5-chloro-1H-indol-2-yl)methyl)-1-methylurea] |
| 30.7 | CC(=O)N1CCC[C@@H](N(C)C(=O)NCc2[nH]c3ccc(Cl)cc3c2Cl)C1 [Compound 176, (R)-1-(1-acetylpiperidin-3-yl)-3-((3,5-dichloro-1H-indol-2-yl)methyl)-1-methylurea] |
| 122 | Cc1cc(N2CCC[C@@H](N(C)C(=O)NCc3cc4cc(Cl)ccc4[nH]3)C2)no1 [Compound 177, (R)-3-((5-chloro-1H-indol-2-yl)methyl)-1-methyl-1-(1-(5-methylisoxazol-3-yl)piperidin-3-yl)urea] |
| 1570 | CNc1cc(Cl)cc2cc(CNC(=O)N(C)[C@@H]3CCCN(C(C)=O)C3)[nH]c12 [Compound 178, (R)-1-(1-acetylpiperidin-3-yl)-3-((5-chloro-7-(methylamino)-1H-indol-2-yl)methyl)-1-methylurea] |
| 1210 | COc1cc2[nH]c(CNC(=O)N(C)[C@@H]3CCCN(C(C)=O)C3)cc2cc1C [Compound 179, (R)-1-(1-acetylpiperidin-3-yl)-3-((6-methoxy-5-methyl-1H-indol-2-yl)methyl)-1-methylurea] |
